Values of other authors as cited in patent US20080085243A1, “MOLECULAR MARKERS FOR D[…] RESPONSIVENESS” (SIGMA-ALDRICH COMPANY, priority 2006, published 2008).

Tested on: late stage non-small cell lung cancer (NSCLC)

CC(=O)O[C@H]1C(=O)[C@@]2(C)[C@H]([C@H](OC(=O)c3ccccc3)[C@]3(O)C[C@H](OC(=O)[C@H](O)[C@@H](NC(=O)c4ccccc4)c4ccccc4)C(C)=C1C3(C)C)[C@]1(OC(C)=O)CO[C@@H]1C[C@@H]2O [paclitaxel]
patients who respond therapeutically: about 20%
